By Km is commonly meant the substrate concentration at which the rate is half of its maximum.

This note sets out measurements from publication PMC6363832 (Cancer epidemiology, biomarkers & prevention : a …, 2018).

Format in all cases: biochemical
Conditions in all cases: NADPH regenerating system, 50 mM potassium phosphate, 37 °C; HEK293 microsomes

Assay [1] deals with T1, wt FMO5 (Homo sapiens, UniProt P49326).
T1 sequence (P49326 1-533): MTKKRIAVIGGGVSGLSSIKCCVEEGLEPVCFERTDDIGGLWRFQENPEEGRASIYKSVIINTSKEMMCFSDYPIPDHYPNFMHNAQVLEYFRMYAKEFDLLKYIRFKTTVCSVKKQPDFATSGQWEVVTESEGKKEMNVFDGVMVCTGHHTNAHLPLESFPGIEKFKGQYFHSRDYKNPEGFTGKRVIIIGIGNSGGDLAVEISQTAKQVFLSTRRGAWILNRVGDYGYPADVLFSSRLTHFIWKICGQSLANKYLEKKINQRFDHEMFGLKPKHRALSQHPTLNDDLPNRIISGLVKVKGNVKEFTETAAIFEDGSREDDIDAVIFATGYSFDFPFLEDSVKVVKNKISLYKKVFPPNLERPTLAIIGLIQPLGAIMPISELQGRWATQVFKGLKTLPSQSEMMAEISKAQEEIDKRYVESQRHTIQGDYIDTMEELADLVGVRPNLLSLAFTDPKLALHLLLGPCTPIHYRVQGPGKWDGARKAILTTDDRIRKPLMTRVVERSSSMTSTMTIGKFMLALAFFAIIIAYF
As to the kind of experiment: benzydamine N-oxidation, UPLC-MS/MS.

Assay [2] has as its target T2, wt FMO4 (Homo sapiens, UniProt P31512).
T2 sequence (P31512 1-558): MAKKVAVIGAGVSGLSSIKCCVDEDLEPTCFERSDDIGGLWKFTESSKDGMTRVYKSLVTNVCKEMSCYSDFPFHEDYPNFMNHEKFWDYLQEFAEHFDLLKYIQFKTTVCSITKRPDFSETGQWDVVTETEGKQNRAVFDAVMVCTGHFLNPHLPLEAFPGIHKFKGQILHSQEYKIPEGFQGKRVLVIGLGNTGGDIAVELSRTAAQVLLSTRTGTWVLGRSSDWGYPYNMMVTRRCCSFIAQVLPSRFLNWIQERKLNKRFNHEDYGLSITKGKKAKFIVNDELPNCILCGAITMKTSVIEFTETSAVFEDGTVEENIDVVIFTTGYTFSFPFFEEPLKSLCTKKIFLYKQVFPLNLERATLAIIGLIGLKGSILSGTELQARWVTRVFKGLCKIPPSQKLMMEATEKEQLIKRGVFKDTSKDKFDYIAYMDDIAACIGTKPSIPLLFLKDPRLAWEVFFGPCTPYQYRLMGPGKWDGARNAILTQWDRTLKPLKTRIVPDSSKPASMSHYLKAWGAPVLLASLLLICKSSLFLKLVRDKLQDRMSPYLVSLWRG
Briefly: benzydamine N-oxidation, UPLC-MS/MS.

The target in assay [3] is T1, wt FMO5. As to the kind of experiment: nicotine-N'-oxide formation, UPLC-MS/MS.
The target in assay [4] is T2, wt FMO4. Briefly: nicotine-N'-oxide formation, UPLC-MS/MS.

The structures appear in SMILES notation.

Take `CN(C)CCCOc1nn(Cc2ccccc2)c2ccccc12` [benzydamine]: the Michaelis constant (Km) was > 2 mM on wt FMO5 [1] and > 3 mM at wt FMO4 [2].

As to `CN1CCC[C@H]1c1cccnc1` [compound 4, nicotine], the Michaelis constant (Km) at wt FMO5 [3] and on wt FMO4 [4] was > 5 mM in each case.
